In patent US4461895A, “Dibenzo(de,g)quinolines” (Warner-Lambert Company, priority 1981, dated 1984):

Columns and labels:
[1] = tested on: cats; assay: coughing experiment according to Domenjoz on cats (antitussive effect); assay type: in vivo
From the text: The new compounds thereby considerably exceed the known antitussive action of 5,6,6a,7-tetrahydro-1,2,9,10-tetramethoxy-5-methyl-4H-dibenzo(de,g)quinoline (glaucine) with regard to the strength and length of activity.
(§1) The following Table summarises some of the animal experimental results obtained: […]

[2] = toxicity in mice (LD50); details: mouse, in vivo
From the text: as §1

Structure (SMILES)	antitussive effect: duration of cough inhibition ([1]; 1.0 mg./kg., i.v.) [min]	antitussive effect: duration of cough inhibition ([1]; 6.25 mg./kg., id.) [min]	antitussive effect: duration of cough inhibition ([1]; 6.25 mg./kg., sc.) [min]	LD50 ([2]; iv) [mg/kg]	LD50 ([2]; po, ig.) [mg/kg]	LD50 ([2]; sc.) [mg/kg]	antitussive effect: duration of cough inhibition ([1]; 2.0 mg./kg., i.v.) [min]	antitussive effect: duration of cough inhibition ([1]; 4.0 mg./kg., id.) [min]	antitussive effect: cough inhibition ([1]; 10.0 mg./kg., sc., result in words)
C=CCN1CCc2cc(OC)c(OC)c3c2C1Cc1cc(OC)c(OC)cc1-3 (single isomer, unassigned; (+)) [Example 1, (+)-6-Allyl-5,6,6a,7-tetrahydro-1,2,9,10-tetramethoxy-4H-dibenzo(de,g)quinoline]	20	90	40	150	~1200	150	–	–	–
COc1cc2c(cc1OC)-c1c(OC)c(OC)cc3c1C(C2)N(C)CC3 (stereo not drawn) [glaucine]	–	–	–	58.3	531	20	10	40	no cough
